Where two headings read alike, the source gives them in different places.
How the values were obtained:
[1] = system: vascular smooth muscle cells
[2] = system: Vascular smooth muscle cells (BO54); test: Scratch-migration assay; format: cell-based, baboon; design: key: −=no migration; +1=minimal; +2=mild; +3=moderate; +4=marked (maximum density; limit of cell contact inhibition) migration
Experimental: Vascular smooth muscle cells (BO54) were derived from explants of baboon aortic smooth muscle, as described in Example 10. The cells were grown in flat bottom, six well tissue culture plates, which hold about 5 ml of medium. The vascular smooth muscle cells were plated at 200,000 cells/well and placed at 37° C. in a humidified 5% CO2 incubator for 18 hours. The wells were then scratched with a sterile portion of a single edge razor blade that was held by clamp or pliers and was brought aseptically into contact with the bottom of the well at a 90° angle. The cells from a small area along the scratch were removed by a sterile cotton tipped applicator while the blade was in contact with the bottom of the well. After incubation, the presence of cells in the “scratched” area is indicative of cell migration across the scratch line.
Briefly, a stock solution of cytochalasin B (Sigma Chemical Co.) in dimethyl sulfoxide (DMSO) at 1 mg/ml was prepared. Test dilutions of cytochalasin B or control medium were added. Each experiment included two sets of plates:
A set: Test agent exposure for 1, 3, 6, 8 and 10 days only; and
B set: Test agent exposure for 1, 3, 6, 8 and 10 days, followed by a seven day recovery time with control medium.
Both sets of plates were fixed (10% formalin in PBS) and stained (0.02% crystal violet) at the end of the timed exposures. Test concentrations for cytochalasin B were 1, 0.1 and 0.01 μg/ml, and a negative medium control was included. Fresh medium and drug were supplied 3 times per week.
In this Table, “M” indicates Migration Grade. wherein −=no migration; +1=minimal; +2=mild; +3=moderate; and +4=marked (maximum density; limit of cell contact inhibition) migration of vascular smooth muscle cells into the cleared area adjacent to the scratch. In this Table, “T” denotes a morphological Toxicity Grade, wherein −=no toxicity; +1=minimal; +2=mild; +3=moderate; and +4=marked toxicity. The migration results are expressed as “Grade in the Cleared Area of the Well/Grade in an Undisturbed Region of the Well.” The toxicity values represent a grade for all cells in each well.

[3] = system: vascular smooth muscle cells of balloon-traumatized arteries; format: in vivo, pig; details: relative to a PBS control

SMILES: C=C1[C@@H](C)[C@H]2[C@H](Cc3ccccc3)NC(=O)[C@]23OC(=O)/C=C/[C@H](O)CCC[C@@H](C)C/C=C/[C@H]3[C@@H]1O [cytochalasin B]
- morphological cytotoxicity grade ([1]; 5 min + 24 hrs, 0.1 ug): 0
- morphological cytotoxicity grade ([1]; 5 min + 24 hrs, 1 ug): 0.5
- morphological cytotoxicity grade ([1]; 5 min + 24 hrs, 10 ug): 4
- morphological cytotoxicity grade ([1]; 5 min + 48 hrs, 0.1 ug): 0
- morphological cytotoxicity grade ([1]; 5 min + 48 hrs, 1 ug): 1
- morphological cytotoxicity grade ([1]; 5 min + 48 hrs, 10 ug): 4
- morphological cytotoxicity grade ([1]; 5 min + 72 hrs, 0.1 ug): 0
- morphological cytotoxicity grade ([1]; 5 min + 72 hrs, 1 ug): 1
- morphological cytotoxicity grade ([1]; 5 min + 72 hrs, 10 ug): 4.5
- morphological cytotoxicity grade ([1]; 5 min + 96 hrs, 0.1 ug): 0
- morphological cytotoxicity grade ([1]; 5 min + 96 hrs, 1 ug): 1
- morphological cytotoxicity grade ([1]; 5 min + 96 hrs, 10 ug): 5
- morphological cytotoxicity grade ([1]; 5 min + 120 hrs, 0.1 ug): 0
- morphological cytotoxicity grade ([1]; 5 min + 120 hrs, 1 ug): 1
- morphological cytotoxicity grade ([1]; 5 min + 120 hrs, 10 ug): 5
- morphological cytotoxicity grade ([1]; 24 hrs + 24 hrs, 0.01 ug): 0
- morphological cytotoxicity grade ([1]; 24 hrs + 24 hrs, 0.1 ug): 0.5
- morphological cytotoxicity grade ([1]; 24 hrs + 24 hrs, 1 ug): 3
- morphological cytotoxicity grade ([1]; 24 hrs + 48 hrs, 0.01 ug): 0
- morphological cytotoxicity grade ([1]; 24 hrs + 48 hrs, 0.1 ug): 1
- morphological cytotoxicity grade ([1]; 24 hrs + 48 hrs, 1 ug): 4
- morphological cytotoxicity grade ([1]; 24 hrs + 72 hrs, 0.01 ug): 0
- morphological cytotoxicity grade ([1]; 24 hrs + 72 hrs, 0.1 ug): 0.5
- morphological cytotoxicity grade ([1]; 24 hrs + 72 hrs, 1 ug): 4
- morphological cytotoxicity grade ([1]; 24 hrs + 96 hrs, 0.01 ug): 0
- morphological cytotoxicity grade ([1]; 24 hrs + 96 hrs, 0.1 ug): 0
- morphological cytotoxicity grade ([1]; 24 hrs + 96 hrs, 1 ug): 4
- morphological cytotoxicity grade ([1]; 24 hrs + 120 hrs, 0.01 ug): 0
- morphological cytotoxicity grade ([1]; 24 hrs + 120 hrs, 0.1 ug): 0
- morphological cytotoxicity grade ([1]; 24 hrs + 120 hrs, 1 ug): 4
- morphological cytotoxicity grade ([1]; Continuous 6 hrs, 0.01 ug): 0
- morphological cytotoxicity grade ([1]; Continuous 6 hrs, 0.1 ug): 0
- morphological cytotoxicity grade ([1]; Continuous 6 hrs, 1 ug): 3
- morphological cytotoxicity grade ([1]; Continuous 24 hrs (first listing, r16), 0.01 ug): 0
- morphological cytotoxicity grade ([1]; Continuous 24 hrs (first listing, r16), 0.1 ug): 1
- morphological cytotoxicity grade ([1]; Continuous 24 hrs (first listing, r16), 1 ug): 3
- morphological cytotoxicity grade ([1]; Continuous 24 hrs (second listing, r22), 0.01 ug): 0
- morphological cytotoxicity grade ([1]; Continuous 24 hrs (second listing, r22), 0.1 ug): 0
- morphological cytotoxicity grade ([1]; Continuous 24 hrs (second listing, r22), 1 ug): 3
- morphological cytotoxicity grade ([1]; Continuous 48 hrs, 0.01 ug): 0
- morphological cytotoxicity grade ([1]; Continuous 48 hrs, 0.1 ug): 1
- morphological cytotoxicity grade ([1]; Continuous 48 hrs, 1 ug): 3
- morphological Toxicity Grade ([2]; Day 3, Continuous Exposure, 1.0 μg/mL): +3
- morphological Toxicity Grade ([2]; Day 3 exposure, 7-day Recovery Post Exposure, 1.0 μg/mL): +1
- morphological Toxicity Grade ([2]; Day 6, Continuous Exposure, 0.1 μg/mL): +1
- morphological Toxicity Grade ([2]; Day 6 exposure, 7-day Recovery Post Exposure, 1.0 μg/mL): +3
- morphological Toxicity Grade ([2]; Day 8, Continuous Exposure, 0.1 μg/mL): +1
- morphological Toxicity Grade ([2]; Day 8 exposure, 7-day Recovery Post Exposure, 1.0 μg/mL): +3
- morphological Toxicity Grade ([2]; Day 10, Continuous Exposure, 0.1 μg/mL): +1
- morphological Toxicity Grade ([2]; Day 10 exposure, 7-day Recovery Post Exposure, 1.0 μg/mL): +3
- BRDU uptake (cell proliferation) [3]: inhibited BRDU uptake (i.e., cell proliferation) without killing the vascular smooth muscle cells
